One test concerns the target T1, human Y5 receptor (Homo sapiens, UniProt Q15761).
T1 sequence (Q15761 1-445): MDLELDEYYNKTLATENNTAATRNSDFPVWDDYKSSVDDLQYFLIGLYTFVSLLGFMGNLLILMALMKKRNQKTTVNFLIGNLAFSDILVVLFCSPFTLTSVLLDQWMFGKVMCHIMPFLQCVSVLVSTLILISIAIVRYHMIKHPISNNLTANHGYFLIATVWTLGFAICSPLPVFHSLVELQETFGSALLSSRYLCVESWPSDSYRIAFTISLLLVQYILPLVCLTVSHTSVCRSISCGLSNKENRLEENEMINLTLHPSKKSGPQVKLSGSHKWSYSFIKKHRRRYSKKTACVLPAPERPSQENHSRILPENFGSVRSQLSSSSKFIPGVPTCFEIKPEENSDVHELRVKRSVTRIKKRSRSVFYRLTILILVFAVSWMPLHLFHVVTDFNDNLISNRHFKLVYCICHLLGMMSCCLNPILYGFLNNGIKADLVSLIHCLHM
The experiment in a line: Y5 receptor binding inhibition test.
Conditions: not given
In the case of `O=C(Nc1ccc2c(c1)c1c(n2CCO)CCCC1)N1CCOCC1` [Compound 8-9], the “% Inhibition ratio (10 μM)” value was 101%.
Consider `CC(C)n1c2c(c3cc(NC(=O)N(C)CCO)ccc31)CCCC2` [Compound 5-4], for which the “% Inhibition ratio (10 μM)” value worked out at 101%.

The test is the same for the next values; noted with them: 2 h, read-out: % Inhibition ratio (10 μM).
As to `CCn1c2ccccc2c2c(O)c(C(=O)NCCCCCNS(=O)(=O)c3cccc4ccccc34)ccc21` [Compound 1-41], the inhibition at 10 µM was 52%.
Take `CCn1c2c(c3cc(C(=O)NCCOCCNS(C)(=O)=O)ccc31)CCCC2` [Compound 1-51]: the inhibition at 10 µM is 80%.
The same measure, in the same setting: then `CCn1c2ccccc2c2cc(C(=O)NCCNCCNS(=O)(=O)c3cccc4ccccc34)ccc21` [Compound 1-29], with 89%; and `CCn1c2ccccc2c2cc(C(=O)NCCCCCNC(=O)c3cccnc3)ccc21` [Compound 1-23], with 77%; and `CCn1c2ccccc2c2cc(C(=O)NCCCCCNS(=O)(=O)C(C)C)ccc21` [Compound 1-13], with 109%.
On the same count and under the same terms, then `CCn1c2ccccc2c2cc(C(=O)NCCOCCNS(=O)(=O)c3cccc4ccccc34)ccc21` [Compound 1-28], with 100%; and `CCn1c2ccccc2c2cc(C(=O)NCCCCCNC(=O)c3ccc4[nH]nnc4c3)ccc21` [Compound 1-26], with 82%; and `CCn1c2ccccc2c2cc(NC(=O)CCNS(=O)(=O)c3cccc4ccccc34)ccc21` [Compound 1-4], with 100%.
For `CCn1c2ccccc2c2cc(C(=O)NCCCCCNC(=O)c3cccc4ccccc34)ccc21` [Compound 1-22], the inhibition at 10 µM was 89%.
As to `CCn1c2c(c3cc(NC(C)=O)ccc31)CCCCC2` [Compound 3-2], the inhibition at 10 µM was determined as 94%.
Regarding `Cn1c2ccccc2c2cc(C(=O)NCCCCCNS(=O)(=O)c3cccc4ccccc34)ccc21` [Compound 1-46], the inhibition at 10 µM amounted to 102%.
On the same count and under the same terms, in the case of `COCCn1c2c(c3cc(C(=O)NCCOCCNS(=O)(=O)C(C)C)ccc31)CCCC2` [Compound 1-50] it was 89%; in that of `CC(C)n1c2c(c3cc(NC(=O)N(C)CCc4ccncc4)cc(F)c31)CCCC2` [Compound 12-2], 96%.
Same read-out and setting: then `CCn1c2ccccc2c2cc(NC(=O)CCCCCCCNS(=O)(=O)c3cccc4ccccc34)ccc21` [Compound 1-3], with 78%; and `CCCCCCCCS(=O)(=O)NCCCCCNC(=O)c1ccc2c(c1)c1ccccc1n2CC` [Compound 1-12], with 77%; and `CC(C)S(=O)(=O)NCCCCCNC(=O)c1ccc2c(c1)c1c(n2CC(N)=O)CCCC1` [Compound 1-61], with 77%.
On the same count and under the same terms, then `CCCCn1c2ccccc2c2cc(C(=O)NCCCCCNS(=O)(=O)c3cccc4ccccc34)ccc21` [Compound 1-48], with 96%; and `CCn1c2ccccc2c2cc(C(=O)NCCCCCNC(=O)C34CC5CC(CC(C5)C3)C4)ccc21` [Compound 1-20], with 86%.
As for `CCn1c2c(c3cc(C(=O)NCCCCCNS(=O)(=O)c4cccc5ccccc45)c(O)cc31)CCCC2` [Compound 1-43], the inhibition at 10 µM came to 54%.
For `CC(C)S(=O)(=O)NCCCCCNC(=O)c1ccc2c(c1)c1c(n2CCOCCO)CCCC1` [Compound 1-60], the inhibition at 10 µM was found to be 86%.
Regarding `CCn1c2ccccc2c2cc(C(=O)NC3CCC(CNS(=O)(=O)c4cccc5ccccc45)CC3)ccc21` (centres unmarked) [Compound 1-35], the inhibition at 10 µM is 75%.
Consider `CC(C)n1c2c(c3cc(NC(=O)CCCCCNS(=O)(=O)c4cccc5ccccc45)ccc31)CCCC2` [Compound 1-9], for which the inhibition at 10 µM came out at 100%.
The same measure, in the same setting: then `CCn1c2ccccc2c2cc(NC(=O)CCCCNS(=O)(=O)c3ccc4ccccc4c3)ccc21` [Compound 1-6], with 93%; and `CCn1c2ccccc2c2cc(C(=O)NCCCCCNS(=O)(=O)c3ccccc3)ccc21` [Compound 1-15], with 111%; and `CCn1c2ccccc2c2c(OC)c(C(=O)NCCCCCNS(=O)(=O)c3cccc4ccccc34)ccc21` [Compound 1-36], with 92%.
Consider `CCn1c2c(c3cc(C(=O)NCCCCCNS(=O)(=O)c4cccc5ccccc45)ccc31)CCCC2` [Compound 1-45], for which the inhibition at 10 µM turned out to be 87%.
In the case of `CCn1c2c(c3cc(C(=O)NCCOCCn4nnnc4N)ccc31)CCCC2` [Compound 2-4], the inhibition at 10 µM came out at 85%.
For `CCn1c2c(c3cc(NC(C)=O)ccc31)CCCC2` [Compound 3-1], the inhibition at 10 µM was 88%.
Consider `CCn1c2ccccc2c2cc(C(=O)NCCCCCNS(=O)(=O)c3cccc4c(N(C)C)cccc34)ccc21` [Compound 1-17], for which the inhibition at 10 µM is 93%.
As for `CCn1c2ccccc2c2cc(NS(C)(=O)=O)ccc21` [Compound 3-8], the inhibition at 10 µM was 73%.
`CCn1c2ccccc2c2cc(NC(=O)CCCCCNS(=O)(=O)c3cccc4ccccc34)ccc21` [Compound 1-2]: the inhibition at 10 µM came out at 91%.
On to `CCn1c2ccccc2c2cc(C(=O)NCCCCCNC(=O)C(C)C)ccc21` [Compound 1-18], for which the inhibition at 10 µM is 88%.
For the molecule `CC(C)n1c2c(c3cc(NC(=S)N(C)CCc4ccncc4)ccc31)CCCC2` [Compound 12-3], the inhibition at 10 µM is 97%.
For the molecule `CCn1c2ccccc2c2cc(C(=O)NCCCCCNS(C)(=O)=O)ccc21` [Compound 1-10], the inhibition at 10 µM came out at 99%.
As for `CCn1c2ccccc2c2cc(C(=O)NCCCCCNS(=O)(=O)c3cccc4ccccc34)ccc21` [Compound 1-32], the inhibition at 10 µM amounted to 97%.
With `COCCn1c2c(c3cc(C(=O)NCCOCCNS(=O)(=O)c4cccnc4)ccc31)CCCC2` [Compound 1-58], the inhibition at 10 µM is 66%.

Still in this test, the particulars now being: test compound 10 μM; 3H-NPY; membrane of insect cells expressing human Y5 receptor; 4° C., 2 hours; relative to Y5 specific binding in solvent group.
Regarding `CC(C)Cn1c2c(c3cc(NC(=O)N4CCOCC4)ccc31)CCCC2` [Compound 8-6], the “% Inhibition ratio (10 μM)” value was 100%.
With `CC(C)n1c2c(c3cc(NC(=O)N4CCNCC4)ccc31)CCCC2` [Compound 7-18], the “% Inhibition ratio (10 μM)” value turned out to be 92%.
As to `N#CCn1c2c(c3cc(NC(=O)N4CCOCC4)ccc31)CCCC2` [Compound 8-10], the “% Inhibition ratio (10 μM)” value amounted to 78%.
For `CC(C)n1c2c(c3cc(NC(=O)N(C)CC4CCCO4)ccc31)CCCC2` (centres unmarked) [Compound 5-13], the “% Inhibition ratio (10 μM)” value is on record as 98%.
As for `CC(C)n1c2c(c3cc(NC(=O)N(C)CCSc4ncc[nH]4)ccc31)CCCC2` [Compound 5-25], the “% Inhibition ratio (10 μM)” value was found to be 101%.
Turning to `CC(C)n1c2c(c3cc(NC(=O)N(C)CCc4cccnc4)ccc31)CCCC2` [Compound 5-19], the “% Inhibition ratio (10 μM)” value was 100%.
The same measure, in the same setting: then `CC(C)n1c2c(c3cc(NC(=O)N4C[C@@H](C)O[C@@H](C)C4)ccc31)CCCC2` [Compound 7-16], with 96%; and `CC(C)n1c2c(c3cc(NC(=O)N4CCCC(CO)C4)ccc31)CCCC2` (centres unmarked) [Compound 7-10], with 97%.
Still for that read-out and setting: then `CC(C)n1c2c(c3cc(NC(=O)N4CCN(C)CC4)ccc31)CCCC2` [Compound 7-19], with 75%; and `CC(C)n1c2c(c3cc(NC(=O)N4CCC[C@@H]4CO)ccc31)CCCC2` [Compound 7-6], with 88%; and `O=C(Nc1ccc2c(c1)c1c(n2CC2CC2)CCCC1)N1CCOCC1` [Compound 8-7], with 100%.
For the molecule `CC(C)n1c2c(c3cc(NC(=O)N(C)CCc4ccccn4)ccc31)CCC2` [Compound 10-2], the “% Inhibition ratio (10 μM)” value came out at 83%.
Still for that read-out and setting: in the case of `CC(C)n1c2c(c3cc(NC(=O)N(C)CCc4ccncc4)ccc31)CCC2` [Compound 10-3] it was 95%; in that of `CC(C)n1c2c(c3cc(NC(=O)N(C)CCCCO)ccc31)CCCC2` [Compound 5-6], 89%; in that of `CC(C)n1c2c(c3cc(NC(=O)N(C)C4CCCCC4)ccc31)CCCC2` [Compound 5-11], 97%.
In the case of `CC(C)n1c2c(c3cc(NC(=O)N(C)CCc4ccccn4)ccc31)CCCC2` [Compound 5-18], the “% Inhibition ratio (10 μM)” value came to 100%.
As for `COCCCCN(C)C(=O)Nc1ccc2c(c1)c1c(n2C(C)C)CCCC1` [Compound 5-7], the “% Inhibition ratio (10 μM)” value came out at 100%.
Turning to `CC(C)n1c2c(c3cc(NC(=O)N(C)CCN4CCCCC4)ccc31)CCCC2` [Compound 5-14], the “% Inhibition ratio (10 μM)” value amounted to 95%.
For the molecule `CC(C)n1c2c(c3cc(NC(=O)N4CCN(c5ncccn5)CC4)ccc31)CCCC2` [Compound 7-21], the “% Inhibition ratio (10 μM)” value came to 80%.
In the case of `CCn1c2c(c3cc(NC(=O)N4CCOCC4)ccc31)CCCC2` [Compound 8-2], the “% Inhibition ratio (10 μM)” value was 95%.
Consider `CC(C)n1c2c(c3cc(NC(=O)N(C)CCN4CCOCC4)ccc31)CCCC2` [Compound 5-16], for which the “% Inhibition ratio (10 μM)” value turned out to be 86%.
In the case of `CC(C)n1c2c(c3cc(NC(=O)N(C)CCC#N)ccc31)CCCC2` [Compound 5-9], the “% Inhibition ratio (10 μM)” value is listed as 98%.
As for `CC(C)n1c2c(c3cc(NC(=O)N(C)CCN4CCN(C)CC4)ccc31)CCCC2` [Compound 5-15], the “% Inhibition ratio (10 μM)” value came out at 87%.
As to `CC(C)n1c2c(c3cc(NC(=O)N4CCOC(CCO)C4)ccc31)CCCC2` (centres unmarked) [Compound 7-17], the “% Inhibition ratio (10 μM)” value turned out to be 99%.
With `CC(C)n1c2c(c3cc(NC(=O)N(C)CCOCCO)ccc31)CCCC2` [Compound 5-10], the “% Inhibition ratio (10 μM)” value was determined as 104%.
`CC(C)n1c2c(c3cc(NC(=O)N4CCOCC4)ccc31)CCCC2` [Compound 8-4]: the “% Inhibition ratio (10 μM)” value was determined as 98%.
In the case of `CC(C)n1c2c(c3cc(NC(=O)N(C)CCCn4ccnc4)ccc31)CCCC2` [Compound 5-22], the “% Inhibition ratio (10 μM)” value is given as 100%.
